Laboratory results from KR20230116309A (priority 2022, dated 2023).
Counter-ions that a name gives are not always drawn. Like-named read-outs stand apart in the source and are kept apart here.

Assays:
[1] = tested on: proteins involved in foot-and-mouth disease virus replication [구제역바이러스의 증식에 관여하는 단백질]; conditions: cited from earlier work
[2] = tested on: foot-and-mouth disease virus O/SKR/Boeun/2017 [O/SKR/Boeun/2017 바이러스]; assay type: cell-based
[3] = tested on: LFBK cells [LFBK 세포]; test: Cytotoxicity by MTS assay (Test Example 1); assay type: cell-based, porcine; conditions: no virus, values in Table 1 (missing)
[4] = tested on: foot-and-mouth disease virus O/SKR/Boeun/2017 [구제역바이러스(O/SKR/Boeun/2017)]; assay type: cell-based
[5] = tested on: foot-and-mouth disease virus O/VIT/2013 [구제역바이러스 O/VIT/2013]; assay type: in vivo, C57BL/6 mouse; conditions: for survival rate: 16 h before challenge with 250 LD50, day 7
[6] = tested on: porcine interferon alpha protein [돼지 인터페론 알파 단백질]; assay type: cell-based
[7] = tested on: IFN-α [인터페론 알파(IFN-α)]; set-up: species or system Balb/C mouse; conditions: mouse, in vivo
[8] = tested on: IFN-γ [인터페론 감마(IFN-γ)]; set-up: species or system Balb/C mouse; conditions: mouse, in vivo
[9] = tested on: IL-12; set-up: species or system Balb/C mouse; conditions: mouse, in vivo
[10] = tested on: IL-6; set-up: species or system Balb/C mouse; conditions: mouse, in vivo
[11] = tested on: IP-10 [IP-10(CXCL10)]; set-up: species or system Balb/C mouse; conditions: mouse, in vivo
[12] = molecular target: T1, TLR7 (toll-like receptor 7) (Homo sapiens, UniProt Q9NYK1); conditions: oral administration; cited from earlier work
T1 sequence (Q9NYK1 27-1049): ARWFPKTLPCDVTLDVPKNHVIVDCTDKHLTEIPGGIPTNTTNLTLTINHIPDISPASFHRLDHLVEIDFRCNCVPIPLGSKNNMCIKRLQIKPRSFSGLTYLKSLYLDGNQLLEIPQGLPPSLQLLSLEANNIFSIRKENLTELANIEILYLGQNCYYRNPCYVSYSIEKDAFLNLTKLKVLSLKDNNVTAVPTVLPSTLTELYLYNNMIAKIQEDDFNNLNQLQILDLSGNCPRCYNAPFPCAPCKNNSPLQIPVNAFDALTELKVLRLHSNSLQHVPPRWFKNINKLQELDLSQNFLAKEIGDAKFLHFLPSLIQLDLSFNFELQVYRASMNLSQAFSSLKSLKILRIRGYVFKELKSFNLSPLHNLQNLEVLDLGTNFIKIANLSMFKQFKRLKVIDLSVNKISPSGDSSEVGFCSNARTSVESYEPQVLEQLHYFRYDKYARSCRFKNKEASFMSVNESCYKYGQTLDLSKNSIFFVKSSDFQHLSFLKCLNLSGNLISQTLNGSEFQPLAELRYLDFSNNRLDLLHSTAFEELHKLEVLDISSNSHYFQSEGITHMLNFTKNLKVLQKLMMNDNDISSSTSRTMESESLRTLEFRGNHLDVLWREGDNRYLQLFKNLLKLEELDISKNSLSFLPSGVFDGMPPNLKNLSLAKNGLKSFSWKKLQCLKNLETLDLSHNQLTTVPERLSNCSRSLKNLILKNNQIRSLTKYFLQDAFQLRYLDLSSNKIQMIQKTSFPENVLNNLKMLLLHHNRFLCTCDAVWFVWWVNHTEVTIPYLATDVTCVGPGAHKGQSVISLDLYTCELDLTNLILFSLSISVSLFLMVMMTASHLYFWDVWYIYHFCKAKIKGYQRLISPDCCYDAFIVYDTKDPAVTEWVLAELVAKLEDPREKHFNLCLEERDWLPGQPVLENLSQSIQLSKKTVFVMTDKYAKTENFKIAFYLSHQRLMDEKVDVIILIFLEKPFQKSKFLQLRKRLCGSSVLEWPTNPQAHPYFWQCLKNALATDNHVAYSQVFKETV

[13] = tested on: interferon-stimulated gene [인터페론-자극 유전자(interferon-stimulated gene; ISG)]; conditions: oral administration, human and laboratory animals; cited from earlier work
[14] = tested on: chronic hepatitis B virus [B형 만성 간염 바이러스]; conditions: oral administration, human and laboratory animals; cited from earlier work
[15] = tested on: human hepatitis C virus [인간 간염 바이러스 C형(HCV)]; conditions: cited from earlier work
[16] = tested on: human immunodeficiency virus [인간면역결핍 바이러스(HIV)]; conditions: cited from earlier work
[17] = tested on: enterovirus 71 [엔테로바이러스 71(EV71)]; conditions: cited from earlier work

In the case of `N=C(N)N` [구아니딘(Guanidine)-HCl], the “inhibition of proteins involved in FMDV replication” value (“inhibition of proteins involved” below) [1] is given as “구제역바이러스의 증식에 관여하는 단백질을 억제”.

In the case of `CCCCOc1nc(N)c2c(n1)N(Cc1cccc(CN3CCCC3)c1)CC(=O)N2` [GS-9620, 베사톨리모드(Vesatolimod; GS-9620)], the “selectivity index (CC50/EC50)” value ([2]; LFBK cells, 24 h pretreatment, 100TCID50 virus, 24 h after inoculation) is reported as ~650.5, the virus inhibitory effect ([2]; LFBK cells, MTS assay, values in Table 1 (missing)) is reported as “우수한 바이러스 억제효과” and the “selectivity index relative to ribavirin (fold higher)” value ([2]; compared with ribavirin) is reported as ~5 fold. For the same compound, the cytotoxicity [3] was “낮은 세포독성”, the “FMDV replication inhibitory effect, dose dependence” value ([4]; 2500~156.2 μM, 24 h pretreatment, 100 TCID50, 48 h) was “용량에 비례하여 구제역바이러스 증식억제 효과를 발휘” and the “FMDV replication inhibitory effect compared with ribavirin” value ([4]; same concentration, P<0.05, 100 TCID50, 48 h) was “같은 농도에서 더 우수한 바이러스 증식효과”. For the same compound, the survival rate ([5]; 10 mg/kg i.p.) was 100%, the “survival rate (duration of protection)” value ([5]; 10 mg/kg i.p., up to day 5 after administration (challenge 1, 3, 5 days after dosing, 250 LD50)) was 100% and the survival rate ([5]; printed dose 25 mg/kg ('halved'), i.p.) was 80%. The IFN-α protein induction [6] was “IFN-α 단백질을 성공적으로 유도”, the IFN-α induction [7] was “유도되어 나타났다” and the IFN-γ induction [8] was “유도되어 나타났다”. The IL-12 induction [9] was “증가가 확인된”, the IL-6 induction [10] was “신속하게 또한 지속적으로 유도” and the IP-10 induction [11] was “신속하게 또한 지속적으로 유도”. For the same compound, the TLR7 agonist activity [12] was “효능제(agonist)로 작용”, the “induction of ISG expression” value [13] was “발현을 유도” and the “inhibition of hepatitis B virus” value [14] was “B형 만성 간염 바이러스를 억제”. For the same compound, the antiviral effect [15] was “항바이러스 효과”, the antiviral effect [16] was “항바이러스 효과” and the antiviral effect [17] was “항바이러스 효과”.

In the case of `O=c1cnn([C@@H]2O[C@H](CO)[C@@H](O)[C@H]2O)c(=O)[nH]1` [6-아자우리딘(azauridine)], the “inhibition of proteins involved” value [1] is listed as “구제역바이러스의 증식에 관여하는 단백질을 억제”.

In the case of `NC(=O)c1ncn([C@@H]2O[C@H](CO)[C@@H](O)[C@H]2O)n1` [리바비린, 리바비린(ribavirin)], the “inhibition of proteins involved” value [1] is listed as “구제역바이러스의 증식에 관여하는 단백질을 억제”.
